The values below come from paper PMC8815882, “Screening the pandemic response box identified benzimidazole carbamates, Olorofim and ravuconazole as promising drug candidates for the treatment of eumycetoma” (PLoS Neglected Tropical Diseases, 2022).

For the test, the system named is M. mycetomatis genome strain MM55. Put plainly: CLSI M38-A2 based in vitro susceptibility screening (XTT or resazurin), growth at fixed concentration. Type of test: cell-based, Madurella mycetomatis. As to conditions: for activity at 25 µM / activity at 100 µM / Percent fungal survival at 100 µM: Madurella mycetomatis; for Percent fungal survival at 100 µM: read-out: Percentage survival at 100um, 100 uM A (second replicate column). On the technique in general: Tetrazolium dyes change colour on reduction, which living cells bring about.

Setting [1] is: 25 uM, mean of replicates, read-out: Percentage survival at 25um, 25 uM mean.
The mark [2] stands for this setting: 25 uM, replicate A, read-out: Percentage survival at 25um, 25 um A.
The mark [3] stands for this setting: 25 uM, replicate B, read-out: Percentage survival at 25um, 25 uM B.
Where [4] appears, read: 25 uM, replicate C, read-out: Percentage survival at 25um, 25 uM C.
Where [5] appears, read: 100 uM, mean of replicates, read-out: Percentage survival at 100um, 100 uM mean.
[6] abbreviates: 100 uM, replicate 1, read-out: Percentage survival at 100um, 100 uM A.
Setting [7] is: 100 uM, replicate 2, read-out: Percentage survival at 100um, 100 uM A.
Where [8] appears, read: 100 uM, replicate 3, read-out: Percentage survival at 100um, 100 uM A.
The mark [9] stands for this setting: 25 uM, mean of three replicates, read-out: Percentage survival at 25um, 25 uM mean.
Setting [10] is: 100 uM, mean of three replicates, read-out: Percentage survival at 100um, 100 uM mean.
Where [11] appears, read: 25 uM, mean, read-out: Percentage survival at 25um, 25 uM mean.
The mark [12] stands for this setting: 100 uM, mean, read-out: Percentage survival at 100um, 100 uM mean.
The mark [13] stands for this setting: 100 uM, replicate (first column), read-out: Percentage survival at 100um, 100 uM A.
[14] abbreviates: 100 uM, replicate (second column), read-out: Percentage survival at 100um, 100 uM A.
The mark [15] stands for this setting: 100 uM, replicate (third column), read-out: Percentage survival at 100um, 100 uM A.
The mark [16] stands for this setting: 25 uM, mean of three, M. mycetomatis MM55, read-out: Percentage survival at 25um, 25 uM mean.
The mark [17] stands for this setting: 25 uM, replicate A, M. mycetomatis MM55, read-out: Percentage survival at 25um, 25 um A.
Setting [18] is: 25 uM, replicate B, M. mycetomatis MM55, read-out: Percentage survival at 25um, 25 uM B.
The mark [19] stands for this setting: 25 uM, replicate C, M. mycetomatis MM55, read-out: Percentage survival at 25um, 25 uM C.
The mark [20] stands for this setting: 100 uM, mean of three, M. mycetomatis MM55, read-out: Percentage survival at 100um, 100 uM mean.
Where [21] appears, read: 100 uM, replicate 1, M. mycetomatis MM55, read-out: Percentage survival at 100um, 100 uM A (first replicate column).
Setting [22] is: 100 uM, replicate 2, M. mycetomatis MM55.
Where [23] appears, read: 100 uM, replicate 3, M. mycetomatis MM55, read-out: Percentage survival at 100um, 100 uM A (third replicate column).

Molecules are shown by their SMILES. Where “and” joins values, the source holds several entries; their conditions need not be identical. Equal values may be shown once. Read-outs that look alike come from different tables or passages of the source.

For the compound `CC[C@H](CO)Nc1nc(NCc2ccccc2)c2ncn(C(C)C)c2n1` [MMV003820], the “Percentage survival at 100um, 100 uM A” value was 50.7482% and 60.4702%. Also, for the setting “read-out: Percentage survival at 25um, 25 uM B”, the activity at 25 µM was determined as 62.4%. The activity at 25 µM (read-out: Percentage survival at 25um, 25 uM C) is 43.5%. For the same compound, the activity at 25 µM (read-out: Percentage survival at 25um, 25 uM mean) stood at 63.8%. In addition, the activity at 25 µM (read-out: Percentage survival at 25um, 25 um A) stood at 85.5%. Further, under “read-out: Percentage survival at 100um, 100 uM A”, the activity at 100 µM amounted to 48.1%. For the same compound, the activity at 100 µM (read-out: Percentage survival at 100um, 100 uM mean) is 53.1%.

As for `COc1cc(Cc2cc(N)nc(N)n2)cc(OC)c1OC` [MMV1579846], the activity at 25 µM was 80.9% under setting [1], 87.9% under setting [2], 75.2% under setting [3] and 79.5% under setting [4]. The activity at 100 µM by setting is: under setting [5], 95.4%; under setting [6], 83.5%; under setting [7], 94.2%; under setting [8], 108%.

Consider `CCCCCCCCCN1C[C@@H](O)[C@H](O)[C@@H](O)[C@@H]1CO` [MMV1593513], for which the activity at 25 µM by setting is: under setting [9], 93.6%; under setting [2], 92%; under setting [3], 104%; under setting [4], 85.1%. In addition, the activity at 100 µM by setting is: under setting [10], 87.5%; (100 uM, replicate 1, read-out: Percentage survival at 100um, 100 uM A (first replicate column)) 91.7%; (100 uM, replicate 3, read-out: Percentage survival at 100um, 100 uM A (third replicate column)) 86.2%. Also, the Percent fungal survival at 100 µM (100 uM, replicate 2) is 84.5%.

Turning to `O=c1ccc2ncc(=O)n3c2n1CC3CN1CCC(NCc2cc3c(cn2)OCCC3)CC1` (centres unmarked) [MMV1578568], the activity at 25 µM under setting [11] was 66.7%, the activity at 25 µM under setting [2] came out at 82.6%, the activity at 25 µM under setting [3] was determined as 42.3% and the activity at 25 µM under setting [4] came to 75.2%. For the same compound, the activity at 100 µM is, setting by setting: under setting [12], 63.3%; under setting [13], 26.3%; under setting [14], 74.3%; under setting [15], 89.2%.

Turning to `C[C@H]1CC[C@@]2(O)C(C)(C)[C@@H]3CC[C@@]2(C)[C@H]1C3` [MMV1578556], the activity at 25 µM by setting is: under setting [16], 75.9%; under setting [17], 69.5%; under setting [18], 83.8%; under setting [19], 74.3%. For the same compound, the activity at 100 µM was 84.9% under setting [20], 79.8% under setting [21] and 82.4% under setting [23]. Also, the Percent fungal survival at 100 µM under setting [22] stood at 92.6%.

Take `CN(C)c1[nH]c(=O)ncc1F` [MMV1782223]: the activity at 25 µM reads like this: under setting [11], 93%; under setting [2], 97%; under setting [3], 101%; under setting [4], 80.9%. The activity at 100 µM is 82.8% under setting [12], 84% under setting [13], 75.3% under setting [14] and 88.9% under setting [15].

`NC[C@H]1O[C@H](O[C@H]2[C@H](O)[C@@H](O[C@H]3O[C@H](CO)[C@@H](O)[C@H](N)[C@H]3O)[C@H](N)C[C@@H]2N)[C@H](N)C[C@@H]1O` [MMV002459]: the activity at 25 µM came to 86.6% under setting [1], 96.5% under setting [2], 69% under setting [3] and 94.3% under setting [4]. Further, the activity at 100 µM was found to be 63.3% under setting [5], 89.3% under setting [6], 40% under setting [7] and 60.6% under setting [8].

For `O=C(Nc1ccccc1C(=O)O)c1cccc(Oc2ccccc2)c1` [MMV1579784], the activity at 25 µM is, setting by setting: under setting [16], 90.7%; under setting [17], 75.3%; under setting [18], 85.5%; under setting [19], 111%. The activity at 100 µM under setting [20] was 90.8%, the activity at 100 µM under setting [21] is 88.1% and the activity at 100 µM under setting [23] worked out at 72.2%. The Percent fungal survival at 100 µM under setting [22] turned out to be 112%.

For `O=C(NC1CCCc2c1[nH]c1ccc(Cl)cc21)c1ccccn1` (centres unmarked) [MMV690621], the activity at 25 µM reads like this: under setting [9], 79%; under setting [2], 75.2%; under setting [3], 91.8%; under setting [4], 70.2%. For the same compound, the activity at 100 µM (100 uM, first replicate column, read-out: Percentage survival at 100um, 100 uM A) is -4.95%; the activity at 100 µM under setting [10] was -0.446%; the activity at 100 µM (100 uM, second replicate column, read-out: Percentage survival at 100um, 100 uM A) is -2.06%; the activity at 100 µM (100 uM, third replicate column, read-out: Percentage survival at 100um, 100 uM A) is 5.67%.

As to `Cc1cc(CCOc2c(C)cc(-c3nnn(C)n3)cc2C)on1` [MMV1782349], the activity at 25 µM reads like this: (25 uM, mean of replicates, MM55, read-out: Percentage survival at 25um, 25 uM mean) 75.6%; (25 uM, replicate A, MM55, read-out: Percentage survival at 25um, 25 um A) 84.4%; (25 uM, replicate B, MM55, read-out: Percentage survival at 25um, 25 uM B) 90%; (25 uM, replicate C, MM55, read-out: Percentage survival at 25um, 25 uM C) 52.4%. In addition, the activity at 100 µM (100 uM, mean of replicates, MM55, read-out: Percentage survival at 100um, 100 uM mean) was 52.1%; the activity at 100 µM (100 uM, replicate 1, MM55, read-out: Percentage survival at 100um, 100 uM A) turned out to be 44.9%; the activity at 100 µM (100 uM, replicate 2, MM55, read-out: Percentage survival at 100um, 100 uM A) was 65%; the activity at 100 µM (100 uM, replicate 3, MM55, read-out: Percentage survival at 100um, 100 uM A) was 46.2%.

As for `CC(=O)O[C@H]1C[C@@]2(C)[C@@H](C[C@@H](O)[C@H]3[C@@]4(C)CC[C@@H](O)[C@@H](C)[C@@H]4CC[C@@]32C)/C1=C(\CCC=C(C)C)C(=O)O` [MMV1578575], the activity at 25 µM is, setting by setting: under setting [16], 83.8%; under setting [17], 96.4%; under setting [18], 83.3%; under setting [19], 71.6%. The activity at 100 µM is, setting by setting: under setting [20], 84.3%; under setting [21], 78.5%; under setting [23], 84.8%. Under setting [22], the Percent fungal survival at 100 µM worked out at 89.6%.

Consider `CCc1cc(Nc2cc(=O)n(CCN3CCN(C(=O)c4ccccc4)CC3)c(=O)[nH]2)ccc1C` [MMV1634383], for which the activity at 25 µM was determined as 84% under setting [1], 86.7% under setting [2], 79.7% under setting [3] and 85.7% under setting [4]. Also, the activity at 100 µM is, setting by setting: under setting [5], 88.4%; under setting [6], 93%; under setting [7], 83.3%; under setting [8], 89%.

For the compound `Nc1nnc(-c2ccc(Cl)cc2)s1` [MMV046261], the activity at 25 µM turned out to be 82.4% under setting [1], 77.9% under setting [2], 83% under setting [3] and 86.2% under setting [4]. For the same compound, the activity at 100 µM is 69.4% under setting [5], 62.5% under setting [6], 72.1% under setting [7] and 73.6% under setting [8].

As for `Oc1ccc2[nH]c(-c3ccccc3)nc2c1` [MMV292173], the activity at 25 µM was determined as 89.9% under setting [1], 82.5% under setting [2], 95.1% under setting [3] and 92% under setting [4]. Moreover, the activity at 100 µM was 93.2% under setting [5], 100% under setting [6], 85.4% under setting [7] and 94.1% under setting [8].

With `CC1(C)Cc2c(C#N)c(SCCc3ccccc3)nc(N3CCOCC3)c2CO1` [MMV1549626], the activity at 25 µM under setting [16] is 62.3%, the activity at 25 µM under setting [17] was 67.7%, the activity at 25 µM under setting [18] was found to be 59.1% and the activity at 25 µM under setting [19] came out at 60.3%. For the same compound, the activity at 100 µM was found to be 87.3% under setting [20], 92.1% under setting [21] and 65.1% under setting [23]. Further, the Percent fungal survival at 100 µM under setting [22] worked out at 105%.
